Test results reported in patent publication US20070141619A1, “DRUG RESISTANCE-ASSOCIATED GENE AND USE THEREOF” (BANYU PHARMACEUTICAL CO., Ltd., priority 2000, published 2007).
“Also recorded” adds a separate entry of the source.

How the values were obtained:
MCF-7/T8 [1] = assay: SRB drug sensitivity, MCF-7 with introduced ABCG2-482T; type: cell-based, human; details: MCF-7/T8 (ABCG2-482T)
Protocol: (§1) The full length human ABCG2 cDNA of the present invention prepared in Example 5 was inserted into a plasmid for expression in mammalian cells, followed by transfection of human breast cancer cells, MCF-7 cells, with the ABCG2 expression plasmid using Effectene Transfection Reagent (QIAGEN). Likewise, human breast cancer cells, MCF-7 cells, were transfected with a plasmid including the ABCG2-482T cDNA prepared in Example 10. The experiments were carried out according to an attached procedural manual. As a control experiment, the MCF-7 cells were also transfected with vector alone. The three experiments were conducted simultaneously. Two days from the transfection, the original media were replaced with selective media containing 900 μg/ml of Geneticin (GIBCO BRL). By culture over a prolonged term under this condition, stable transfectant clones with introduced plasmid were selected. Two to three weeks from the transfection, emerging colonies were picked and the expression of ABCG2 in the cells was examined by Northern Blot analysis. Northern Blot analysis was performed as described in Example 4: 8 μg of total RNA prepared from each clone using RNeasy mini kit (QIAGEN) was separated on a formaldehyde denatured agarose gel, followed by analysis using the human ABCG2 cDNA fragment of the present invention as a probe.
(§2) The drug sensitivity of the stable transfectant clones which were established from MCF-7 cells with introduced ABCG2- or ABCG2-482T-expression plasmid, was measured using SRB method as described in Example 2 and the sensitivity of each transfectant to drugs was shown as a relative resistance to the cells with introduced vector alone (FIG. 6).

PC-13/ABCG2-3 = assay: SRB drug sensitivity, PC-13 transfected with ABCG2 (clone 3); type: cell-based, human
Protocol: (§3) Test cells in the logarithmic growth phase were dispensed into wells of 96-well plate at 1×10^3 cells/well. After subculture for 24 hours in a CO2 incubator, a serial diluted agent was added to each well. After further incubation for 72 hours, the cells were fixed with trichloroacetic acid (TCA) and the proteins in the cells were stained by 0.4% sulforhodamine B solution. The samples were eluted by 10 mM Tris-HCl for 1 hour, and each well was measured at 560 nm with a 450 nm reference, by a SPECTRAmax 250 plate reader (Molecular Devices Corp.).
(§4) PC-13 cells were transfected with the ABCG2 expression plasmids using Effectene Transfection Reagent (QIAGEN). The experiment was performed according to the attached procedural manual. As a control experiment, other PC-13 cells were transfected with vector alone without the ABCG2 sequence. The two experiments were conducted simultaneously. Two days after the transfection, the original media were replaced with selection media containing 0.2 mg/ml of Geneticin (GIBCO BRL). By culture for a long time under this condition, stable transfectant clones with the introduced plasmids were selected. Two weeks from the transfection, emerging colonies were picked and expression of ABCG2 in the cells was examined by Northern Blot analysis.

ABCG2 [2] = assay: as above; type: cell-based, human; details: human; PC-13/ABCG2-3; average ± standard error of three independent experiments
Protocol: as §3, §4

PC13 = assay: SRB drug sensitivity, PC-13 parental cells; type: cell-based; details: Homo sapiens, 72 hours with agent
LY/NR1 = assay: SRB drug sensitivity, Compound-A-resistant LY/NR1; type: cell-based, mouse
From the text: A colony that grew under these conditions was isolated using a cloning ring (Asahi Techno Glass Corporation) and designated as LY/NR1.

MCF-7/T8 [3] = assay: Mitoxantrone accumulation by flow cytometry in MCF-7/T8; type: cell-based, human; details: 20 μM Mitoxantrone, 90 min, FIG. 7-(b)
Protocol: (§5) The amount of accumulation of Mitoxantrone in the MCF-7 stable transfectants with introduced ABCG2 of the present invention or ABCG2-482T was measured as follows.
(§6) Cells seeded at 1.0×10^6 cells/well in a 6-well culture plate were incubated for overnight. The next day, the cells in a fresh medium containing 20 μM Mitoxantrone were cultured at 37° C. for 90 min in a CO2 incubator to incorporate the compound into the cells. After a lapse of 90 min, the cells were rapidly chilled on ice, washed once with PBS, detached using 2.5% trypsin. The lysate was centrifuged at 400×g at 4° C. for 3 min to collect the cells. The collected cells were suspended in Hank's Balanced Salt Solutions containing 1% BSA and subjected to fluorimetry of the compound using a flow cytometer, Epics Elite (Beckman Coulter, Inc.). The value was indicated as Intracellular Accumulation (FIG. 7-(b)).

[4] = test system: PC-13 cell lines with introduced ABCG2; assay: SRB drug sensitivity, PC-13 cell lines with introduced ABCG2 (stated jointly); type: cell-based, human; details: PC-13 cell lines with introduced ABCG2, versus vector alone
Protocol: as §3, §4

HCT116/NR1 = assay: SRB drug sensitivity, Compound-A-resistant HCT116/NR1; type: cell-based, human
From the text: An emerging colony was isolated and designated as HCT116/NR1.

[5] = test system: MCF-7 cells expressing introduced BCRP; details: report of Doyle et al. 1998; cited from earlier work
HCT116 = assay: SRB drug sensitivity, HCT116 parental cells; type: cell-based; details: Homo sapiens, HCT-116, 72 hours with agent
MCF-7/R7 [6] = assay: Mitoxantrone accumulation by flow cytometry in MCF-7/R7; type: cell-based, human; details: 20 μM Mitoxantrone, 90 min, FIG. 7-(b)
Protocol: as §5, §6

MCF-7/R7 [7] = assay: SRB drug sensitivity, MCF-7 with introduced ABCG2 of the present invention; type: cell-based, human; details: MCF-7/R7 (ABCG2 of the present invention), FIG. 6
Protocol: as §1, §2

HeLa#7 = assay: SRB drug sensitivity, spontaneously resistant HeLa#7; type: cell-based, human
HeLaS3 = assay: SRB drug sensitivity, HeLaS3 (Compound-A-sensitive); type: cell-based; details: Homo sapiens, HeLa S3, 72 hours with agent
LY = assay: SRB drug sensitivity, LY parental fibroblasts; type: cell-based; details: Mus musculus, Fibroblast, 72 hours with agent
PC13/NR13 = assay: SRB drug sensitivity, Compound-A-resistant PC-13/NR13; type: cell-based, human
LY/NR2 = assay: SRB drug sensitivity, Compound-A-resistant LY/NR2; type: cell-based, mouse
From the text: An emerging colony was isolated as described above and designated as LY/NR2.

PC-13/ABCG2-2 = assay: SRB drug sensitivity, PC-13 transfected with ABCG2 (clone 2); type: cell-based, human
Protocol: as §3, §4

ABCG2 [8] = assay: as above; type: cell-based, human; details: human; PC-13/ABCG2-2; average ± standard error of three independent experiments
Protocol: as §3, §4

PC-13/Vector = assay: SRB drug sensitivity, PC-13 transfected with vector alone; type: cell-based; details: Homo sapiens, average ± standard error of three independent experiments
Protocol: as §3, §4

MCF-7/R7 [9] = assay: Rhodamine accumulation by flow cytometry in MCF-7/R7; type: cell-based, human; details: 5 μM Rhodamine, 30 min, FIG. 7-(c)
Protocol: (§7) The next day, the cells in a fresh medium containing 5 μM Rhodamine were cultured at 37° C. for 30 min in a CO2 incubator to incorporate the compound into the cells. After a lapse of 30 min, the cells were rapidly chilled on ice, washed once with PBS, detached using 2.5% trypsin. […] The collected cells were suspended in Hank's Balanced Salt Solutions with 1% BSA and subjected to fluorometry of the compound using a flow cytometer, FACSCalibur (Becton Dickinson and Company). The value was indicated as Intracellular Accumulation (FIG. 7-(c)).

MCF-7/T8 [10] = assay: Rhodamine accumulation by flow cytometry in MCF-7/T8; type: cell-based, human; details: 5 μM Rhodamine, 30 min, FIG. 7-(c)
Protocol: as §7

O=C1c2c(O)ccc(O)c2C(=O)c2c(NCCNCCO)ccc(NCCNCCO)c21 [Mitoxantrone]
relative resistance to the cells with introduced vector alone (MCF-7/T8 [1]; FIG. 6): 25 fold | relative resistance to the cells with introduced vector alone (MCF-7/T8 [1]; FIG. 6, listed as mitoxantrone): showed resistance | Rel. Res. (relative resistance) (PC-13/ABCG2-3; IC50 PC-13/ABCG2-3 divided by IC50 of vector cells): 0.60 | resistance compared to the PC-13 cell with introduced vector alone (PC-13/ABCG2-3; PC-13/ABCG2-3, Example 8): 0.60 fold | IC50 at 72 h (ABCG2 [2]): 31 ± 18 nM | IC50 (PC13): 33 nM | RR: Relative Resistance (LY/NR1; IC50 LY/NR1 divided by IC50 LY): 1.5 | IC50 (LY/NR1; Mus musculus, LY/NR1, SRB, 72 hours with agent): 7.1 nM | Intracellular Accumulation, of that in the cell with introduced vector alone (MCF-7/T8 [3]): about 20% | resistance of cells in which ABCG2 was forcedly expressed [4]: did not display remarkable resistance; also recorded: not resistant | IC50 (HCT116/NR1; Homo sapiens, HCT-116, HCT116/NR1, SRB, 72 hours with agent): 67 nM | RR: Relative Resistance (HCT116/NR1; IC50 HCT116/NR1 divided by IC50 HCT116): 9.6 | resistance [5]: 30 fold | IC50 (HCT116): 7 nM | Intracellular Accumulation, of that in the cell with introduced vector alone (MCF-7/R7 [6]): about 50% | relative resistance to the cells with introduced vector alone (MCF-7/R7 [7]): 3.8 fold | IC50 (HeLa#7; Homo sapiens, HeLa#7, SRB, 72 hours with agent): 27 nM | RR: Relative Resistance (HeLa#7; IC50 HeLa#7 divided by IC50 HeLaS3): 6.1 | IC50 (HeLaS3): 4.4 nM | IC50 (LY): 3.3 nM | IC50 (PC13/NR13; Homo sapiens, PC-13, PC13/NR13, SRB, 72 hours with agent): 160 nM | RR: Relative Resistance (PC13/NR13; IC50 PC13/NR13 divided by IC50 PC13): 4.9 | RR: Relative Resistance (LY/NR2; IC50 LY/NR2 divided by IC50 LY): 17 | IC50 (LY/NR2; Mus musculus, LY/NR2, SRB, 72 hours with agent): 57 nM | Rel. Res. (relative resistance) (PC-13/ABCG2-2; IC50 PC-13/ABCG2-2 divided by IC50 of vector cells): 0.42 | resistance compared to the PC-13 cell with introduced vector alone (PC-13/ABCG2-2; PC-13/ABCG2-2, Example 8): 0.42 fold | IC50 at 72 h (ABCG2 [8]): 22 ± 8 nM | IC50 (PC-13/Vector): 52 ± 21 nM

Rhodamine
Intracellular Accumulation compared with the cell with introduced vector alone (MCF-7/R7 [9]): almost the same level | Intracellular Accumulation, of that in the cell with introduced vector alone (MCF-7/T8 [10]): about 50%
